These results are taken from PubChem BioAssay (NCI).

The structures appear in SMILES notation.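 Exposure lasted 48 hours, with cells grown in 96-well plates and compounds tested at five concentrations. TGI: total growth inhibition.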 A value given as a limit tells only on which side of the number the result lay.

Some test systems named below: DU-145 prostate; EKVX NSCLC; HCC-2998 colon; HCT-116 colon; HS 578T breast; IGROV1 ovarian; MCF7 breast; NCI-H460 lung; OVCAR-4 ovarian; OVCAR-5 ovarian; OVCAR-8 ovarian; RPMI-8226 leukemia; RXF 393 renal; SK-MEL-5 melanoma; SN12C renal; SNB-19 CNS; SW-620 colon; UO-31 renal; NCI-H522 lung; T-47D breast.
What all share (experiment): NCI tumour cell line growth inhibition, 48 h

Take `COc1ccccc1C(C1=C(O)COC1=O)c1cc2c(cc1OC(C)=O)OCO2` (configuration not stated): the TGI in the test on DU-145 prostate, in the test with EKVX NSCLC, in the test on HCC-2998 colon, in the test with HCT-116 colon, in the test on HS 578T breast and in the test with IGROV1 ovarian was over 100 µM throughout. The TGI with MCF7 breast, with NCI-H460 lung, with OVCAR-4 ovarian, in the test with OVCAR-5 ovarian, in the test on OVCAR-8 ovarian and with RPMI-8226 leukemia was over 100 µM each time. In addition, the TGI in the test on RXF 393 renal, with SK-MEL-5 melanoma, in the test on SN12C renal, in the test with SNB-19 CNS, in the test with SW-620 colon and in the test on UO-31 renal was over 100 µM in each case.

For `CC(NC(=O)C(N)Cc1ccc(O)cn1)C(=O)O` (configuration not stated), the TGI in the test with DU-145 prostate, in the test with EKVX NSCLC, in the test on HCC-2998 colon, in the test on HCT-116 colon, in the test on HS 578T breast and in the test with IGROV1 ovarian was over 100 µM in each case. Moreover, the TGI in the test on MCF7 breast, in the test with NCI-H460 lung, in the test on NCI-H522 lung, in the test with OVCAR-4 ovarian, in the test with OVCAR-5 ovarian and with OVCAR-8 ovarian was over 100 µM in each case. Moreover, the TGI with RPMI-8226 leukemia, in the test on RXF 393 renal, with SK-MEL-5 melanoma, in the test on SN12C renal, with SNB-19 CNS and in the test with SW-620 colon was over 100 µM in each case. Further, the TGI in the test on UO-31 renal is over 100 µM.

On to `N[C@H]1CCN(c2c(F)cc3c(=O)c(C(=O)O)cn4c3c2Oc2cc3c(ccc5ccccc53)cc2-4)C1`, for which the TGI in the test on DU-145 prostate was over 100 µM; in the test on EKVX NSCLC, 7.21 µM; in the test with HCC-2998 colon, 6.82 µM; in the test with HCT-116 colon, over 100 µM; in the test with IGROV1 ovarian it was over 100 µM; in the test with MCF7 breast, over 100 µM. The TGI is 5.28 µM in the test with NCI-H460 lung; over 100 µM in the test with NCI-H522 lung; over 100 µM in the test with OVCAR-4 ovarian; over 100 µM with OVCAR-5 ovarian; over 100 µM in the test on OVCAR-8 ovarian; 4 µM with RPMI-8226 leukemia. For the same molecule, the TGI in the test on RXF 393 renal is over 100 µM; with SK-MEL-5 melanoma it was 4.3 µM; in the test with SN12C renal, over 100 µM; in the test with SNB-19 CNS it was over 100 µM; in the test with SW-620 colon, over 100 µM; in the test on UO-31 renal, over 100 µM.

In the case of `O=C(Cn1cc(-c2ccccc2)nn1)NC1CCCC1`, the TGI in the test with DU-145 prostate, with EKVX NSCLC, in the test with HCC-2998 colon, with HCT-116 colon, in the test on IGROV1 ovarian and with MCF7 breast was over 100 µM throughout. The TGI in the test with NCI-H460 lung, in the test on NCI-H522 lung, in the test on OVCAR-4 ovarian, in the test on OVCAR-5 ovarian, in the test on OVCAR-8 ovarian and with RPMI-8226 leukemia was over 100 µM each time. For the same molecule, the TGI with SK-MEL-5 melanoma, in the test with SN12C renal, in the test on SNB-19 CNS and with SW-620 colon was over 100 µM throughout.

As for `COC(=O)C[C@@H]1C(C)(C)[C@@H]2O[C@@]34C[C@@H]2C(=O)[C@]1(C)[C@H]3CC[C@@]1(C)[C@H](c2ccoc2)OC(=O)C[C@]14O`, the TGI in the test with DU-145 prostate, in the test with EKVX NSCLC, with HCT-116 colon, with IGROV1 ovarian, with MCF7 breast and with NCI-H460 lung was over 100 µM each time. Also, the TGI in the test on NCI-H522 lung, in the test with OVCAR-4 ovarian, in the test with OVCAR-5 ovarian, in the test with OVCAR-8 ovarian, in the test on RPMI-8226 leukemia and with SK-MEL-5 melanoma was over 100 µM throughout. Moreover, the TGI with SN12C renal, in the test with SNB-19 CNS, in the test with SW-620 colon and in the test with T-47D breast was over 100 µM throughout.

Regarding `C=CCNC(=S)N1c2ccccc2NC(=O)CC1C` (configuration not stated), the TGI with EKVX NSCLC, in the test on HCT-116 colon, with IGROV1 ovarian, in the test on NCI-H460 lung, in the test on NCI-H522 lung and with OVCAR-4 ovarian was over 100 µM throughout. For the same molecule, the TGI with OVCAR-5 ovarian, in the test with OVCAR-8 ovarian, with RPMI-8226 leukemia, in the test on RXF 393 renal, with SK-MEL-5 melanoma and in the test with SN12C renal was over 100 µM each time. Also, the TGI with SNB-19 CNS, in the test on SW-620 colon and in the test on UO-31 renal was over 100 µM each time.

For the molecule `OCC1OC(Oc2cc(O)cc(/C=C\c3ccc(O)cc3)c2)C(O)C(O)C1O` (configuration not stated), the TGI with DU-145 prostate, in the test on EKVX NSCLC, in the test with HCT-116 colon, in the test with HS 578T breast, in the test with IGROV1 ovarian and with MCF7 breast was over 100 µM throughout. For the same molecule, the TGI in the test with NCI-H460 lung, in the test on NCI-H522 lung, in the test on OVCAR-4 ovarian, with OVCAR-5 ovarian, in the test with OVCAR-8 ovarian and in the test with RPMI-8226 leukemia was over 100 µM throughout. For the same molecule, the TGI in the test on RXF 393 renal, with SK-MEL-5 melanoma, in the test with SN12C renal, in the test on SNB-19 CNS, in the test with SW-620 colon and in the test with UO-31 renal was over 100 µM throughout.

On to `CCOP(=O)(OCC)C1CC(O)CN1OC(=O)C(C)(C)C` (configuration not stated), for which the TGI with DU-145 prostate, in the test with EKVX NSCLC, in the test with HCT-116 colon, in the test on HS 578T breast, in the test with IGROV1 ovarian and in the test with MCF7 breast was over 100 µM in each case. For the same molecule, the TGI with OVCAR-4 ovarian, in the test with OVCAR-5 ovarian, in the test on OVCAR-8 ovarian, in the test with RPMI-8226 leukemia, with SK-MEL-5 melanoma and with SN12C renal was over 100 µM each time. In addition, the TGI with SNB-19 CNS, in the test on SW-620 colon and in the test with UO-31 renal was over 100 µM each time.

On to `C[C@]12CCC(=O)C=C1CC[C@@H]1[C@@H]2CC[C@]2(C)C(=O)[C@H](n3ccnc3)C[C@@H]12`, for which the TGI in the test on DU-145 prostate, in the test with EKVX NSCLC, in the test with HCT-116 colon, in the test on HS 578T breast, in the test on IGROV1 ovarian and in the test on MCF7 breast was over 100 µM each time. In addition, the TGI in the test with NCI-H460 lung, in the test on NCI-H522 lung, in the test with OVCAR-4 ovarian, in the test on OVCAR-5 ovarian, in the test on OVCAR-8 ovarian and with RPMI-8226 leukemia was over 100 µM in each case. Moreover, the TGI in the test on RXF 393 renal, in the test with SK-MEL-5 melanoma, with SN12C renal, in the test on SNB-19 CNS, with SW-620 colon and in the test on UO-31 renal was over 100 µM in each case.

In the case of `O=C1c2ccccc2-c2nc3ccc(O)cc3n21`, the TGI in the test on DU-145 prostate, with EKVX NSCLC, with HCC-2998 colon, in the test on HCT-116 colon, in the test on IGROV1 ovarian and in the test with MCF7 breast was over 100 µM in each case. The TGI in the test with NCI-H460 lung, in the test with NCI-H522 lung, with OVCAR-4 ovarian, with OVCAR-5 ovarian, with OVCAR-8 ovarian and in the test with RPMI-8226 leukemia was over 100 µM each time. The TGI in the test on RXF 393 renal, with SK-MEL-5 melanoma, in the test with SN12C renal, with SNB-19 CNS, in the test on SW-620 colon and with UO-31 renal was over 100 µM each time.

`OCC1NCC(O)C(O)C1O` (configuration not stated): the TGI in the test with DU-145 prostate, in the test on EKVX NSCLC, in the test with HCC-2998 colon, with HCT-116 colon, in the test on HS 578T breast and in the test on IGROV1 ovarian was over 100 µM throughout. In addition, the TGI in the test with MCF7 breast, in the test on NCI-H460 lung, in the test on NCI-H522 lung, in the test on OVCAR-4 ovarian, in the test with OVCAR-5 ovarian and in the test with OVCAR-8 ovarian was over 100 µM in each case. For the same molecule, the TGI in the test with RPMI-8226 leukemia, in the test with RXF 393 renal, with SK-MEL-5 melanoma, in the test on SN12C renal, with SNB-19 CNS and with SW-620 colon was over 100 µM throughout. Further, in the test on UO-31 renal, the TGI was over 100 µM.

Regarding `COc1ccc(-c2c(C#N)c(-c3ccc(C)cc3)n(NS(=O)(=O)c3ccccc3)c(=O)c2C#N)cc1`, the TGI in the test with EKVX NSCLC, in the test on HCC-2998 colon, with HCT-116 colon, in the test with HS 578T breast, in the test on IGROV1 ovarian and in the test with MCF7 breast was over 100 µM each time. Further, the TGI with NCI-H460 lung was over 100 µM; in the test with NCI-H522 lung, over 100 µM; with OVCAR-4 ovarian it was over 100 µM; in the test with OVCAR-5 ovarian it was over 100 µM; in the test with OVCAR-8 ovarian, over 100 µM; with RPMI-8226 leukemia it was 39.4 µM. The TGI was over 100 µM with RXF 393 renal; 44.8 µM in the test on SK-MEL-5 melanoma; over 100 µM in the test on SN12C renal; over 100 µM in the test with SNB-19 CNS; over 100 µM in the test on SW-620 colon.
